Here are results for 22 compounds from patent US20210253562A1, “ACYLSUFONAMIDE COMPOUNDS USEFUL AS EP3 RECEPTOR ANTAGONISTS” (Janssen Pharmaceutica NV, priority 2018, published 2021).

A word on the Ki: it is the equilibrium dissociation constant of an inhibitor or competing ligand from its target. A lower Ki goes with higher affinity.

Structures are written as SMILES.

In one experiment the target is T1, EP3 membrane (EP3 receptor) (Homo sapiens, UniProt P43115).
T1 construct: purchased Millipore HTS092M
T1 sequence (P43115 1-390): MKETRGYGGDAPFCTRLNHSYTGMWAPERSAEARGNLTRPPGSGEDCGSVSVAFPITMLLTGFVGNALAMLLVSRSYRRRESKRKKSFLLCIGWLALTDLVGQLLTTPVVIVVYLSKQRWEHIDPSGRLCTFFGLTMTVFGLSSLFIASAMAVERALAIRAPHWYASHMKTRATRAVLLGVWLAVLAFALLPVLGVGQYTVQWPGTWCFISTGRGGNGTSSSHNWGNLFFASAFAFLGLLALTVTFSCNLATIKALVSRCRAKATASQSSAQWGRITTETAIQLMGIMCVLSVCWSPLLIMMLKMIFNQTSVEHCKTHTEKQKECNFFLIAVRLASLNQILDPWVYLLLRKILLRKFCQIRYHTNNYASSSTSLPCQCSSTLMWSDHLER
The experiment can be described thus: [3H]-PGE2 binding; EP3 competition binding (SPA).
Conditions: not given
How it is done: Biological Example 1: [3H]-PGE2 Binding
EP3 competition binding was determined using the following materials and experimental conditions: • Beads=Perkin Elmer RPNQ0001 • [3H]PGE2=Perkin Elmer NET428025UC • 384-well plate=Perkin Elmer 6007290 • EP3 membrane=Millipore HTS092M • Membrane concentration=2 μg/well • Beads concentration=0.25 mg/well • [3H]-PGE2=2 nM; DMSO—0.1% • Binding buffer=50 mM Tris, 10 mM MgCl2, 1 mM EDTA, PH 7.4.
The reaction system was prepared by mixing 5 μl of unlabeled compound; 5 μl of diluted [3H]-PGE2; 5 μl of diluted membrane; and 15 μl of SPA beads dissolved in binding buffer (adding in the following sequence: Unlabeled compound, [3H]-PGE2, Membrane and Beads).
The binding buffer was removed from refrigeration (@ 4° C.) and allowed to warm to room temperature. Test compound (@ stock concentration of […] in DMSO) was serial dilutes (1:3) with 100% DMSO using Echo plate. Diluted test compound (30 nL) was dispensed to the 384-well assay plate (using Echo 550 Labcyte System). To each well was then added assay buffer (5 μl) and each well was spun. Beads were weighed out, dissolved in assay buffer to a concentration of 0.25 mg/15 μl. Original membrane was diluted with assay buffer to a concentration of 2 μg/5 μl. Original [3H]-PGE2 with diluted with assay buffer to a concentration of 12 nM. To each test well were then added diluted [3H]-PGE2 (5 μl), diluted membrane (5 μl), and dissolved beads (15 μl). The plate was equilibrated at room temperature on a plate shaker for 2 hours and then read with a TOPCOUNT scintillation plate reader. Results were analyzed using a Prism program with non-linear regression, one-site fit for Ki.
Take `COc1ccc(S(=O)(=O)NC(=O)NC/C(F)=C2\COCc3cnn(Cc4ccc(Cl)cc4Cl)c32)cc1Cl` [Compound #165, (E)-3-chloro-N-((2-(1-(2,4-dichlorobenzyl)-1,4-dihydropyrano[4,3-c]pyrazol-7(6H)-ylidene)-2-fluoroethyl)carbamoyl)-4-methoxybenzenesulfonamide]: the Ki was 10 nM.
The compound `O=C(NC/C(F)=C1\CCCc2cnn(CCc3ccc(C(F)(F)F)cc3)c21)NS(=O)(=O)c1cc(Cl)c(Cl)s1` [Compound #157, (Z)-4,5-dichloro-N-((2-fluoro-2-(1-(4-(trifluoromethyl)phenethyl)-1,4,5,6-tetrahydro-7H-indazol-7-ylidene)ethyl)carbamoyl)thiophene-2-sulfonamide] showed a Ki of 467 nM.
Compound `O=C(NC/C(F)=C1\CCCc2cnn(C3CCN(c4ccc(F)cc4)CC3)c21)NS(=O)(=O)c1cc(Cl)c(Cl)s1` [Compound #154, (Z)-4,5-dichloro-N-((2-fluoro-2-(1-(1-(4-fluorophenyl)piperidin-4-yl)-1,4,5,6-tetrahydro-7H-indazol-7-ylidene)ethyl)carbamoyl)thiophene-2-sulfonamide] displayed a Ki of 13 nM.
Regarding `O=C(NC/C(F)=C1\CCCn2nnc(-c3ccc(C(F)(F)F)cc3)c21)NS(=O)(=O)c1cc(Cl)c(Cl)s1` [Compound #164, (Z)-4,5-dichloro-N-((2-fluoro-2-(3-(4-(trifluoromethyl)phenyl)-6,7-dihydro-[1,2,3]triazolo[1,5-a]pyridin-4(5H)-ylidene)ethyl)carbamoyl)thiophene-2-sulfonamide], the Ki came out at 3200 nM.
`Cn1nc2c(c1Cc1ccc(Cl)cc1Cl)/C(=C(\F)CNC(=O)NS(=O)(=O)c1cc(Cl)c(Cl)s1)COC2` [Compound #189, (E)-4,5-dichloro-N-((2-(3-(2,4-dichlorobenzyl)-2-methyl-2,7-dihydropyrano[3,4-c]pyrazol-4(5H)-ylidene)-2-fluoroethyl)carbamoyl)thiophene-2-sulfonamide] registered a Ki of 1 nM.
Regarding `O=C(NC/C=C1\CCCc2cnn(Cc3ncc(-c4ccccc4)cn3)c21)NS(=O)(=O)c1cc(Cl)c(Cl)s1` [Compound #163, (E)-4,5-dichloro-N-((2-(1-((5-phenylpyrimidin-2-yl)methyl)-1,4,5,6-tetrahydro-7H-indazol-7-ylidene)ethyl)carbamoyl)thiophene-2-sulfonamide], the Ki is > 10000 nM.
In turn, `Cn1nccc1S(=O)(=O)NC(=O)NC/C=C1\CCCc2cnn(Cc3ccc(Cl)cc3Cl)c21` [Compound #171, (E)-N-((2-(1-(2,4-dichlorobenzyl)-1,4,5,6-tetrahydro-7H-indazol-7-ylidene)ethyl)carbamoyl)-1-methyl-1H-pyrazole-5-sulfonamide] registered a Ki of 18 nM.
In the case of `O=C(NC/C(F)=C1\CCCc2cnn(Cc3cnn(-c4ccccc4)c3)c21)NS(=O)(=O)c1cc(Cl)c(Cl)s1` [Compound #191, (Z)-4,5-dichloro-N-((2-fluoro-2-(1-((1-phenyl-1H-pyrazol-4-yl)methyl)-1,4,5,6-tetrahydro-7H-indazol-7-ylidene)ethyl)carbamoyl)thiophene-2-sulfonamide], the affinity corresponds to a Ki of 15 nM.
Compound `COc1nc2ccc(S(=O)(=O)NC(=O)NC/C=C3\CCCc4cnn(Cc5ccc(Cl)cc5Cl)c43)cc2o1` [Compound #177, (E)-N-((2-(1-(2,4-dichlorobenzyl)-1,4,5,6-tetrahydro-7H-indazol-7-ylidene)ethyl)carbamoyl)-2-methoxybenzo[d]oxazole-6-sulfonamide] displayed a Ki of 1 nM.
Same read-out and setting: with `Cn1ncc2ccc(S(=O)(=O)NC(=O)NC/C(F)=C3\CCCc4cnn(Cc5ccc(Cl)cc5Cl)c43)cc21` [Compound #194, (Z)—N-((2-(1-(2,4-dichlorobenzyl)-1,4,5,6-tetrahydro-7H-indazol-7-ylidene)-2-fluoroethyl)carbamoyl)-1-methyl-1H-indazole-6-sulfonamide] the figure was 25 nM; with `COc1cc(S(=O)(=O)NC(=O)NC/C(F)=C2\CCCc3cnn(Cc4ccc(Cl)cc4Cl)c32)ccc1Cl` [Compound #175, (Z)-4-Chloro-N-((2-(1-(2,4-dichlorobenzyl)-1,4,5,6-tetrahydro-7H-indazol-7-ylidene)-2-fluoroethyl)carbamoyl)-3-methoxybenzenesulfonamide], 16 nM.
`Cc1nc2cc(S(=O)(=O)NC(=O)NC/C(F)=C3\CCCc4cnn(Cc5ccc(Cl)cc5Cl)c43)ccc2o1` [Compound #183, (Z)—N-((2-(1-(2,4-dichlorobenzyl)-1,4,5,6-tetrahydro-7H-indazol-7-ylidene)-2-fluoroethyl)carbamoyl)-2-methylbenzo[d]oxazole-5-sulfonamide]: the Ki is 218 nM.
Same read-out and setting: with `Cc1cc(S(=O)(=O)NC(=O)NC/C(F)=C2\CCCc3onc(Cc4ccc(Cl)cc4Cl)c32)sc1Cl` [Compound #181, (Z)-5-chloro-N-((2-(3-(2,4-dichlorobenzyl)-6,7-dihydrobenzo[d]isoxazol-4(5H)-ylidene)-2-fluoroethyl)carbamoyl)-4-methylthiophene-2-sulfonamide] the figure was 6 nM; with `Cc1nn(C)cc1S(=O)(=O)NC(=O)NC/C(F)=C1\CCCc2cnn(Cc3ccc(Cl)cc3Cl)c21` [Compound #180, (Z)—N-((2-(1-(2,4-dichlorobenzyl)-1,4,5,6-tetrahydro-7H-indazol-7-ylidene)-2-fluoroethyl)carbamoyl)-1,3-dimethyl-1H-pyrazole-4-sulfonamide], 164 nM.
Turning to `Cn1nc(Cc2ccc(Cl)cc2Cl)c2c1COC/C2=C(/F)CNC(=O)NS(=O)(=O)c1cc(Cl)c(Cl)s1` [Compound #186, (E)-4,5-dichloro-N-((2-(3-(2,4-dichlorobenzyl)-1-methyl-1,7-dihydropyrano[3,4-c]pyrazol-4(5H)-ylidene)-2-fluoroethyl)carbamoyl)thiophene-2-sulfonamide], the affinity corresponds to a Ki of 30 nM. This Ki is about 5.5-fold lower than that of the compound before.
In turn, `Cc1nn(C)cc1S(=O)(=O)NC(=O)NC/C=C1\CCCc2cnn(Cc3ccc(Cl)cc3Cl)c21` [Compound #184, (E)-N-((2-(1-(2,4-dichlorobenzyl)-1,4,5,6-tetrahydro-7H-indazol-7-ylidene)ethyl)carbamoyl)-1,3-dimethyl-1H-pyrazole-4-sulfonamide] yielded a Ki of 14 nM.
In the case of `COCn1nc(Cc2ccc(Cl)cc2Cl)c2c1COC/C2=C(/F)CNC(=O)NS(=O)(=O)c1cc(Cl)c(Cl)s1` [Compound #146, (E)-4,5-dichloro-N-((2-(3-(2,4-dichlorobenzyl)-1-(methoxymethyl)-1,7-dihydropyrano[3,4-c]pyrazol-4(5H)-ylidene)-2-fluoroethyl)carbamoyl)thiophene-2-sulfonamide], the Ki was 22 nM.
Still for that read-out and setting: for `O=C(NC/C=C1\CCCc2cnn(C3CCN(Cc4ccccc4)CC3)c21)NS(=O)(=O)c1cc(Cl)c(Cl)s1` [Compound #148, (E)-N-((2-(1-(1-benzylpiperidin-4-yl)-1,4,5,6-tetrahydro-7H-indazol-7-ylidene)ethyl)carbamoyl)-4,5-dichlorothiophene-2-sulfonamide] the value was 6 nM; for `Cc1cc(S(=O)(=O)NC(=O)NC/C(F)=C2\CCCc3cnn(Cc4ccc(Cl)cc4Cl)c32)n(C)n1` [Compound #193, (Z)—N-((2-(1-(2,4-dichlorobenzyl)-1,4,5,6-tetrahydro-7H-indazol-7-ylidene)-2-fluoroethyl)carbamoyl)-1,3-dimethyl-1H-pyrazole-5-sulfonamide], 75 nM.
Turning to `Cc1nc(C)c(S(=O)(=O)NC(=O)NC/C(F)=C2\COCc3cnn(Cc4ccc(Cl)cc4Cl)c32)s1` [Compound #160, (E)-N-((2-(1-(2,4-dichlorobenzyl)-1,4-dihydropyrano[4,3-c]pyrazol-7(6H)-ylidene)-2-fluoroethyl)carbamoyl)-2,4-dimethylthiazole-5-sulfonamide], the affinity corresponds to a Ki of 217 nM.
In turn, `Cn1ncc2cc(S(=O)(=O)NC(=O)NC/C(F)=C3\CCCc4cnn(Cc5ccc(Cl)cc5Cl)c43)ccc21` [Compound #195, (Z)—N-((2-(1-(2,4-dichlorobenzyl)-1,4,5,6-tetrahydro-7H-indazol-7-ylidene)-2-fluoroethyl)carbamoyl)-1-methyl-1H-indazole-5-sulfonamide] registered a Ki of 45 nM.

The same experiment, now with this note: unit nM.
For `COc1ccc(S(=O)(=O)NC(=O)NC/C(F)=C2\CCCc3[nH]nc(Cc4ccc(Cl)cc4Cl)c32)cc1Cl` [Compound #179, (Z)-3-chloro-N-((2-(3-(2,4-dichlorobenzyl)-1,5,6,7-tetrahydro-4H-indazol-4-ylidene)-2-fluoroethyl)carbamoyl)-4-methoxybenzenesulfonamide], the inhibition constant Ki was 0.4 nM.
